Where “and” joins values, the source holds several entries; their conditions need not be identical. Equal entries are not always repeated.
Columns and labels:
Assay in all cases: Two-electrode voltage-clamp of ACh-induced currents in Xenopus oocytes
Type in all cases: cell-based
(α4)3(β2)2 nAChR = target: T1, (α4)3(β2)2 nAChR (Homo sapiens, UniProt P17787+P43681)
T1 construct: expressed in transfected cells; host or cells: Xenopus laevis oocytes injected with cRNA
Method: To begin to characterize LY2087101 interaction with the heteropentameric α4β2 nAChRs, we examined the selectivity of LY2087101 for the two α4β2 nAChR isoforms; high-agonist sensitivity (α4)2(β2)3 and low-agonist sensitivity (α4)3(β2)2 nAChRs. Xenopus oocytes were injected with α4 and β2 subunits RNAs at ratios 8:1 and 1:8 to favor expression of (α4)3(β2)2 and (α4)2(β2)3 nAChRs, respectively.
(§1) Ovarian lobules were surgically harvested from oocytes-positive female Xenopus laevis (NASCO, Fort Atkinson, WI) according to an animal use protocol approved by the Texas A&M Health Sciences Center Institutional Animals Care and Use Committee. The Texas A&M Health Sciences Center Research Facility is registered as an animal research facility with the United States Department of Agriculture and is fully accredited by the American Association for Accreditation of Laboratory Animal Care (AAALAC). For oocytes defolliculation, ovarian lobes were treated with 3 mg/ml collagenase type 2 (Worthington Biomedical, Lakewood, NJ) in Ca + 2-free buffer (85 mM NaCl, 2.5 mM KCl, 1 mM MgCl2, 5 mM HEPES, pH 7.6). Collagenase treatment was allowed to proceed for 3 hours at room temperature with gentle shaking then oocytes were washed several times with buffer to remove collagenase then with ND96-gentamicine buffer. Healthy Stage V and VI oocytes were visually selected and maintained at 18 °C in modified ND96-gentamicine buffer (96 mM NaCl, 2 mM KCl, 1.8 mM CaCl2, 1 mM MgCl2, 5 mM HEPES, 50 µg/ml gentamicin, pH 7.6). Oocytes were injected with 50–100 ng of the desired nAChR subunits cRNA mix at ratios of 8α:1β or 1α:8β to express nAChRs with subunit stoichiometries of 3α:2β (low agonist sensitivity) or 2α:3β (high agonist sensitivity), respectively.
(§2) Oocytes were continuously perfused with recording buffer (100 mM NaCl, 2 mM KCl, 1 mM CaCl2, 0.8 mM MgCl2, 1 mM EGTA, 10 mM Hepes, pH 7.5) except during periods of drug applications.

(α4C259F)3(β2)2 nAChR = (α4C259F)3(β2)2 nAChR (Homo sapiens, UniProt P43681, C259F); conditions: 10 µM ACh + 1 µM PAM vs 10 µM ACh alone
Method: (§3) For amino acid substitutions within the α4 nAChR subunit, point mutations were introduced into pSP64ployA plasmid with cDNA encoding for human α4 nAChR subunit with mutagenic primer pairs using the Quick Change II Site-Directed Mutagenesis Kit (Agilent Technologies) then confirmed by DNA sequencing (GENEWIZ, LLC, South Plainfield, NJ). cRNA transcripts suitable for oocyte expression were prepared in vitro from linearized plasmids [α3 (BamH1), α4 (AseI), β2 (PvuII), β4 (XhoI)] using mMESSAGE mMACHINE high yield capped RNA transcription kits (Ambion) and purified on NucAway Spin column (Invitrogen). cRNA concentration was determined by spectroscopy (Concentration (ug/ul) = Abs260 * 40), aliquoted and stored at −80 °C until used.
as §1, §2

(α4C259V)3(β2)2 nAChR = (α4C259V)3(β2)2 nAChR (Homo sapiens, UniProt P43681, C259V); conditions: 10 µM ACh + 1 µM PAM vs 10 µM ACh alone
Method: as §3, §1, §2

(α4F316L)3(β2)2 nAChR = (α4F316L)3(β2)2 nAChR (Homo sapiens, UniProt P43681, F316L)
Method: as §3, §1, §2

(α4G613L)3(β2)2 nAChR = (α4G613L)3(β2)2 nAChR (Homo sapiens, UniProt P43681, G613L)
Method: as §3, §1, §2

(α4H332Y)3(β2)2 nAChR = target: T2, (α4H332Y)3(β2)2 nAChR (Homo sapiens, UniProt P17787+P43681, H332Y); conditions: 10 µM ACh + 1 µM PAM vs 10 µM ACh alone
T2 construct: expressed in transfected cells; host or cells: Xenopus laevis oocytes injected with cRNA
Method: as §3, §1, §2

(α4I275V)3(β2)2 nAChR = target: T3, (α4I275V)3(β2)2 nAChR (Homo sapiens, UniProt P17787+P43681, I275V); conditions: 10 µM ACh + 1 µM PAM vs 10 µM ACh alone
T3 construct: expressed in transfected cells; host or cells: Xenopus laevis oocytes injected with cRNA
Method: as §3, §1, §2

(α4I315A)3(β2)2 nAChR = target: T4, (α4I315A)3(β2)2 nAChR (Homo sapiens, UniProt P17787+P43681, I315A); conditions: 10 µM ACh + 1 µM PAM vs 10 µM ACh alone
T4 construct: expressed in transfected cells; host or cells: Xenopus laevis oocytes injected with cRNA
Method: as §3, §1, §2

(α4I607T)3(β2)2 nAChR = target: T5, (α4I607T)3(β2)2 nAChR (Homo sapiens, UniProt P17787+P43681, I607T); conditions: 10 µM ACh + 1 µM PAM vs 10 µM ACh alone
T5 construct: expressed in transfected cells; host or cells: Xenopus laevis oocytes injected with cRNA
Method: as §3, §1, §2

(α4L256F)3(β2)2 nAChR = (α4L256F)3(β2)2 nAChR (Homo sapiens, UniProt P43681, L256F)
Method: as §3, §1, §2

(α4L260M)3(β2)2 nAChR = target: T6, (α4L260M)3(β2)2 nAChR (Homo sapiens, UniProt P17787+P43681, L260M)
T6 construct: expressed in transfected cells; host or cells: Xenopus laevis oocytes injected with cRNA
Method: as §3, §1, §2

(α4L291V)3(β2)2 nAChR = target: T7, (α4L291V)3(β2)2 nAChR (Homo sapiens, UniProt P17787+P43681, L291V)
T7 construct: expressed in transfected cells; host or cells: Xenopus laevis oocytes injected with cRNA
Method: as §3, §1, §2

(α4L311V)3(β2)2 nAChR = (α4L311V)3(β2)2 nAChR (Homo sapiens, UniProt P43681, L311V); conditions: 10 µM ACh + 1 µM PAM vs 10 µM ACh alone
Method: as §3, §1, §2

(α4V609A)3(β2)2 nAChR = target: T8, (α4V609A)3(β2)2 nAChR (Homo sapiens, UniProt P17787+P43681, V609A); conditions: 10 µM ACh + 1 µM PAM vs 10 µM ACh alone
T8 construct: expressed in transfected cells; host or cells: Xenopus laevis oocytes injected with cRNA
Method: as §3, §1, §2

α4β2 nAChR = target: T9, α4β2 nAChR (Homo sapiens, UniProt P17787+P43681); conditions: 1 μM PAM
T9 construct: expressed in transfected cells; host or cells: Xenopus laevis oocytes injected with cRNA
Method: (§4) Next, Xenopus oocytes were injected with RNA mixes of […], α3:β4, […], or α4:β4 at ratios of 8:1, 1:1, or 1:8 to express nAChRs with different subunit composition and with various α:β ratios.
as §1, §2

α4β4 nAChR = target: T10, α4β4 nAChR (Homo sapiens, UniProt P30926+P43681); conditions: 1 μM PAM
T10 construct: expressed in transfected cells; host or cells: Xenopus laevis oocytes injected with cRNA
Method: as §4, §1, §2

[1] = read-out: dFBr potentiation EC50
[2] = 10 µM ACh + 1 µM PAM vs 10 µM ACh alone
[3] = ACh concentration-response curve, normalized to 1 mM ACh alone
[4] = read-out: inhibition of ACh-current response at 10 μM dFBr

Chain of (α4F316L)3(β2)2 nAChR (P43681 29-627 F316L limits assumed): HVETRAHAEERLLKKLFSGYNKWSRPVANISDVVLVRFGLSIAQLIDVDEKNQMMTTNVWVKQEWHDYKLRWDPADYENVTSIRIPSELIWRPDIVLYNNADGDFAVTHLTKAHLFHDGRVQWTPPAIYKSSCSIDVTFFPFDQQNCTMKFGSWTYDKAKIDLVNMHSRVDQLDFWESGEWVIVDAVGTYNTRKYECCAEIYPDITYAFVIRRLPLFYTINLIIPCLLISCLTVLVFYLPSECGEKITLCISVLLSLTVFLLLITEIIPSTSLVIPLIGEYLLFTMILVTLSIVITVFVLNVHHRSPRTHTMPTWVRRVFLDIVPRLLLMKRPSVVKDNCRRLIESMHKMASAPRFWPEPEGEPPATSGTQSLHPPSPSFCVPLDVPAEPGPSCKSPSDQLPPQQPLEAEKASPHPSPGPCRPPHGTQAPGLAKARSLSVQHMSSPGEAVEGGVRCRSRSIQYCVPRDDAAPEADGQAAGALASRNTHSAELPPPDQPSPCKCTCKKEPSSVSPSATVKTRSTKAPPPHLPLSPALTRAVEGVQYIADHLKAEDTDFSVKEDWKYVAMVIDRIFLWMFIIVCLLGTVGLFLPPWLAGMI
Chain of (α4F316L)3(β2)2 nAChR (P17787 26-502 partner): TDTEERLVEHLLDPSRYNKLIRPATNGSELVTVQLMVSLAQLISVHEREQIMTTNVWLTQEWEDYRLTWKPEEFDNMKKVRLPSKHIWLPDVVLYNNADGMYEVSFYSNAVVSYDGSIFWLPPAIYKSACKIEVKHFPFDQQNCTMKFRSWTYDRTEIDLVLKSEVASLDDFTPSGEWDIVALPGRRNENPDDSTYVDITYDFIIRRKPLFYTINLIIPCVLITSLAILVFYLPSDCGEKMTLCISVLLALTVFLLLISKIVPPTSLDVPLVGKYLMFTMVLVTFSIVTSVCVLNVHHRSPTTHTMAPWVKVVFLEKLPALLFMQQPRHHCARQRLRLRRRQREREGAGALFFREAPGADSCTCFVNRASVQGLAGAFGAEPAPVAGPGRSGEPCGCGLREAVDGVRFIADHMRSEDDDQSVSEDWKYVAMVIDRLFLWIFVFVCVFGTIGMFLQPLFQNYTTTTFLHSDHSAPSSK
Chain of (α4L256F)3(β2)2 nAChR (P43681 29-627 L256F limits assumed): as the sequence (P43681 29-627 F316L limits assumed) above, with L228F, L288F counted along it
Chain of (α4L256F)3(β2)2 nAChR (P17787 26-502 partner): as the sequence (P17787 26-502 partner) above
T4 sequence (P43681 29-627 I315A limits assumed): as the sequence (P43681 29-627 F316L limits assumed) above, with I287A, L288F counted along it
T4 sequence (P17787 26-502): as the sequence (P17787 26-502 partner) above
T1 sequence (P43681 29-627 limits assumed): as the sequence (P43681 29-627 F316L limits assumed) above, with L288F counted along it
T1 sequence (P17787 26-502): as the sequence (P17787 26-502 partner) above
T7 sequence (P43681 29-627 L291V limits assumed): as the sequence (P43681 29-627 F316L limits assumed) above, with L263V, L288F counted along it
T7 sequence (P17787 26-502): as the sequence (P17787 26-502 partner) above
Chain of (α4G613L)3(β2)2 nAChR (P43681 29-627 G613L limits assumed): as the sequence (P43681 29-627 F316L limits assumed) above, with L288F, G585L counted along it
Chain of (α4G613L)3(β2)2 nAChR (P17787 26-502 partner): as the sequence (P17787 26-502 partner) above
T6 sequence (P43681 29-627 L260M limits assumed): as the sequence (P43681 29-627 F316L limits assumed) above, with L232M, L288F counted along it
T6 sequence (P17787 26-502): as the sequence (P17787 26-502 partner) above
T3 sequence (P43681 29-627 I275V limits assumed): as the sequence (P43681 29-627 F316L limits assumed) above, with I247V, L288F counted along it
T3 sequence (P17787 26-502): as the sequence (P17787 26-502 partner) above
Chain of (α4C259F)3(β2)2 nAChR (P43681 29-627 C259F limits assumed): as the sequence (P43681 29-627 F316L limits assumed) above, with C231F, L288F counted along it
Chain of (α4C259F)3(β2)2 nAChR (P17787 26-502 partner): as the sequence (P17787 26-502 partner) above
Chain of (α4L311V)3(β2)2 nAChR (P43681 29-627 L311V limits assumed): as the sequence (P43681 29-627 F316L limits assumed) above, with L283V, L288F counted along it
Chain of (α4L311V)3(β2)2 nAChR (P17787 26-502 partner): as the sequence (P17787 26-502 partner) above
T2 sequence (P43681 29-627 H332Y limits assumed): as the sequence (P43681 29-627 F316L limits assumed) above, with L288F, H304Y counted along it
T2 sequence (P17787 26-502): as the sequence (P17787 26-502 partner) above
T5 sequence (P43681 29-627 I607T limits assumed): as the sequence (P43681 29-627 F316L limits assumed) above, with L288F, I579T counted along it
T5 sequence (P17787 26-502): as the sequence (P17787 26-502 partner) above
T10 sequence (P43681 29-627 limits assumed): as the sequence (P43681 29-627 F316L limits assumed) above, with L288F counted along it
T10 sequence (P30926 22-498): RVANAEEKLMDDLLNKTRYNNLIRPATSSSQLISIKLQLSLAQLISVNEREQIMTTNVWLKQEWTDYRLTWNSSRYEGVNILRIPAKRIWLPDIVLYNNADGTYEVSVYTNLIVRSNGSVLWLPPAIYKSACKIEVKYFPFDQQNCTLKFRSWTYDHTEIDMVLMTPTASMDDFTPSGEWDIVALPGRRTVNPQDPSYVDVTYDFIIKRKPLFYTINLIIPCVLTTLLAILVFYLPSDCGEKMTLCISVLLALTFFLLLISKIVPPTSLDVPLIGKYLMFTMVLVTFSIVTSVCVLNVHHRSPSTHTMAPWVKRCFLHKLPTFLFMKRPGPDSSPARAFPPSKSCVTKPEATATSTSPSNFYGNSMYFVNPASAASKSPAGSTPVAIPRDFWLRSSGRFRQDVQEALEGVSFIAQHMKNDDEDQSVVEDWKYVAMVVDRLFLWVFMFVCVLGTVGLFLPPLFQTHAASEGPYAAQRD
T9 sequence (P43681 29-627 limits assumed): as the sequence (P43681 29-627 F316L limits assumed) above, with L288F counted along it
T9 sequence (P17787 26-502): as the sequence (P17787 26-502 partner) above
T8 sequence (P43681 29-627 V609A limits assumed): as the sequence (P43681 29-627 F316L limits assumed) above, with L288F, V581A counted along it
T8 sequence (P17787 26-502): as the sequence (P17787 26-502 partner) above
Chain of (α4C259V)3(β2)2 nAChR (P43681 29-627 C259V limits assumed): as the sequence (P43681 29-627 F316L limits assumed) above, with C231V, L288F counted along it
Chain of (α4C259V)3(β2)2 nAChR (P17787 26-502 partner): as the sequence (P17787 26-502 partner) above

## C=CC(C)(C)c1[nH]c2cc(Br)ccc2c1CCNC [dFBr]
(α4)3(β2)2 nAChR; 10 µM ACh + 1 µM PAM vs 10 µM ACh alone, WT
  R, potentiation ratio (PR): 4.4 ± 0.2
(α4)3(β2)2 nAChR; co-applied with 10 μM ACh, WT
  dFBr potentiation h (Hill coefficient): 1.1 ± 0.2
(α4)3(β2)2 nAChR; normalized to 10 µM ACh alone, WT
  dFBr potentiation Imax: 580 ± 42%
(α4)3(β2)2 nAChR; [1]
  EC50: 1000 ± 300 nM
(α4C259F)3(β2)2 nAChR
  R, potentiation ratio (PR): 3.1 ± 0.3
(α4C259V)3(β2)2 nAChR
  R, potentiation ratio (PR): 4.6 ± 0.9
(α4F316L)3(β2)2 nAChR; [2]
  R, potentiation ratio (PR): 1.2 and ~ 1.2 and 1.2 ± 0.1
(α4F316L)3(β2)2 nAChR; [3]
  ACh Imax in the presence of 1 µM dFBr: 148 ± 12%
(α4F316L)3(β2)2 nAChR; dFBr up to 10 µM, 10 μM ACh
  dFBr concentration-dependent potentiation of ACh-current responses: did not potentiate
(α4G613L)3(β2)2 nAChR; [2]
  R, potentiation ratio (PR): 0.8 and 0.8 ± 0.1
(α4G613L)3(β2)2 nAChR; [3]
  ACh Imax in the presence of 1 µM dFBr: 157 ± 19%
(α4G613L)3(β2)2 nAChR; dFBr up to 10 µM, 10 μM ACh
  dFBr concentration-dependent potentiation of ACh-current responses: did not potentiate
(α4G613L)3(β2)2 nAChR; [4]
  inhibition at 10 µM: ~65%
(α4H332Y)3(β2)2 nAChR
  R, potentiation ratio (PR): 5.5 ± 0.4
(α4I275V)3(β2)2 nAChR
  R, potentiation ratio (PR): 4.0 ± 0.6
(α4I315A)3(β2)2 nAChR
  R, potentiation ratio (PR): 1.2 and ~ 1.2 and 1.2 ± 0.2
(α4I607T)3(β2)2 nAChR
  R, potentiation ratio (PR): 4.7 ± 2.1
(α4L256F)3(β2)2 nAChR; [2]
  R, potentiation ratio (PR): 1.0 and ~ 1 and 1.0 ± 0.1
(α4L256F)3(β2)2 nAChR; [3]
  ACh Imax in the presence of 1 µM dFBr: 142 ± 08%
(α4L256F)3(β2)2 nAChR; dFBr up to 10 µM, 10 μM ACh
  dFBr concentration-dependent potentiation of ACh-current responses: did not potentiate
(α4L256F)3(β2)2 nAChR; [4]
  inhibition at 10 µM: ~25%
(α4L260M)3(β2)2 nAChR; [2]
  R, potentiation ratio (PR): 3.6 ± 0.4
(α4L260M)3(β2)2 nAChR; [3]
  ACh Imax in the presence of 1 µM dFBr: 250 ± 36%
(α4L291V)3(β2)2 nAChR; [2]
  R, potentiation ratio (PR): 3.5 ± 0.2
(α4L291V)3(β2)2 nAChR; co-applied with 10 μM ACh
  dFBr potentiation h (Hill coefficient): 0.8 ± 0.2
(α4L291V)3(β2)2 nAChR; normalized to 10 µM ACh alone
  dFBr potentiation Imax: 600 ± 136%
(α4L291V)3(β2)2 nAChR; [1]
  EC50: 2900 ± 1900 nM
(α4L311V)3(β2)2 nAChR
  R, potentiation ratio (PR): 5.8 ± 1.4
(α4V609A)3(β2)2 nAChR
  R, potentiation ratio (PR): 3.2 ± 0.2
α4β2 nAChR
  potentiation of ACh responses: potentiated
α4β4 nAChR
  potentiation of ACh responses: did not potentiate
